The text below walks through data of US8871753B2, “Macrocyclic compounds and their use as kinase inhibitors” (Incyte Corporation, priority 2008, dated 2014).

SMILES strings stand for the structures. Where a name gives a salt, the structure may show the parent alone. Read-outs that look alike come from different tables or passages of the source.

Type in all cases: biochemical
The target of test [1] is T1, human JAK1 (a.a. 837-1142) (Homo sapiens, UniProt P23458).
T1 construct: human JAK1 (a.a. 837-1142); His tag (N); made in house; host or cells: insect cells (baculovirus)
T1 sequence (P23458 849-1154): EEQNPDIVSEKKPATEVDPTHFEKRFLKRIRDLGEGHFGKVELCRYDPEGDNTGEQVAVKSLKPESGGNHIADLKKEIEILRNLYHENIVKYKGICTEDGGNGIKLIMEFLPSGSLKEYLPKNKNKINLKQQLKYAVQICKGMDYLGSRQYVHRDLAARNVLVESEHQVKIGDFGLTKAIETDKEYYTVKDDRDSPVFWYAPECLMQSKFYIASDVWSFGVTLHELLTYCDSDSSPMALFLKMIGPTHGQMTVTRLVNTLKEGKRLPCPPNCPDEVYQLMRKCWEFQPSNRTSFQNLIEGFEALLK
Briefly: In vitro JAK kinase assay (HTRF, phosphorylation of a biotinylated peptide), JAK1. The note with it: read-out: JAK1 IC50. The essentials:
(§1)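 Kinase activity was measured as phosphorylation of a biotinylated peptide, with ATP at 90 μM for JAK1, 30 μM for JAK2 and 3 μM for JAK3. Reactions ran 1 hr at room temperature, were stopped with EDTA plus SA-APC and Eu-Py20, and were read by HTRF after 40 minutes of antibody binding.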
A general note: TR-FRET usually uses a lanthanide donor and a delayed reading to cut background.

Test [2] concerns the target T2, human JAK2 (a.a. 828-1132) (Homo sapiens, UniProt O60674).
T2 construct: JAK2 (a.a. 828-1132); His tag (N); made in house; host or cells: insect cells (baculovirus)
Briefly: In vitro JAK kinase assay (HTRF, phosphorylation of a biotinylated peptide), JAK2. In outline: as §1

The target in test [3] is T3, human JAK3 (a.a. 781-1124) (Homo sapiens, UniProt P52333).
T3 construct: JAK3 (a.a. 781-1124); His tag (N); made in house; host or cells: insect cells (baculovirus)
T3 sequence (P52333 781-1124): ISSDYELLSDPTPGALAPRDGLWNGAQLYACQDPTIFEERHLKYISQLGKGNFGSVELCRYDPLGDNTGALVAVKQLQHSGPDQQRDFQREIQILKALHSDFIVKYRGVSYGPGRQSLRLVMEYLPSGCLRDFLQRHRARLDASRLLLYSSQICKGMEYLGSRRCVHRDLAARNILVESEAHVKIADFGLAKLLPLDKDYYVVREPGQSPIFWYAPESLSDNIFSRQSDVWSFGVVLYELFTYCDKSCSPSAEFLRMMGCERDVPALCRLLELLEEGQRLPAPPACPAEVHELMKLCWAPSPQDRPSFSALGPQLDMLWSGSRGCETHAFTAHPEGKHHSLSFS
Briefly: In vitro JAK kinase assay (HTRF, phosphorylation of a biotinylated peptide), JAK3. In outline: as §1

Another test has as its target TYK2 (Homo sapiens, UniProt P29597). Briefly: TYK2 kinase inhibition (Table A1).
Test [4] concerns the target T4, Recombinant Human Anaplastic Lymphoma Kinase (Homo sapiens, UniProt Q9UM73).
T4 construct: purchased Invitrogen, Carlsbad, Calif
Briefly: ALK HTRF kinase assay. In outline: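 Compounds were incubated with recombinant human ALK and a biotin-tagged peptide substrate. Product was captured with streptavidin-APC and probed with a europium anti-phosphotyrosine antibody, and plates were read for time-resolved fluorescence. Dose-response data were fitted to derive IC50.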

Setting [5] is: Table B1, cells without percent sign.
Where [6] appears, read: compound at a concentration of 500 nM or 1 mM (not specified), cells shown as percentage.
The mark [7] stands for this setting: method AA1 (90 μM ATP) or AA2 (1000 μM ATP), not stated per value.
[8] abbreviates: method AA1 (30 μM ATP) or AA2 (1000 μM ATP), not stated per value.
Where [9] appears, read: method AA1 (3 μM ATP) or AA2 (1000 μM ATP), not stated per value.
[10] abbreviates: compound at 500 nM or 1 mM, 90 μM ATP.
Where [11] appears, read: percentage inhibition of the example compound at a concentration of 500 nM or 1 mM (not specified which).

T2 sequence (O60674 828-1132): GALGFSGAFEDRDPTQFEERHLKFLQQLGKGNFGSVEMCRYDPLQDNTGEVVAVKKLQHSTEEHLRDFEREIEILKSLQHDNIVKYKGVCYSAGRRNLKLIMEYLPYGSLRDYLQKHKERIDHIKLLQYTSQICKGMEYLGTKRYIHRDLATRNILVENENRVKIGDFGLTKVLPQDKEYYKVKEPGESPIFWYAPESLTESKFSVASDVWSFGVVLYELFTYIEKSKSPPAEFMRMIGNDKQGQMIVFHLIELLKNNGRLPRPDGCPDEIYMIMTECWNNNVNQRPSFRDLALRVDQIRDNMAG
T4 sequence (Q9UM73 19-1620): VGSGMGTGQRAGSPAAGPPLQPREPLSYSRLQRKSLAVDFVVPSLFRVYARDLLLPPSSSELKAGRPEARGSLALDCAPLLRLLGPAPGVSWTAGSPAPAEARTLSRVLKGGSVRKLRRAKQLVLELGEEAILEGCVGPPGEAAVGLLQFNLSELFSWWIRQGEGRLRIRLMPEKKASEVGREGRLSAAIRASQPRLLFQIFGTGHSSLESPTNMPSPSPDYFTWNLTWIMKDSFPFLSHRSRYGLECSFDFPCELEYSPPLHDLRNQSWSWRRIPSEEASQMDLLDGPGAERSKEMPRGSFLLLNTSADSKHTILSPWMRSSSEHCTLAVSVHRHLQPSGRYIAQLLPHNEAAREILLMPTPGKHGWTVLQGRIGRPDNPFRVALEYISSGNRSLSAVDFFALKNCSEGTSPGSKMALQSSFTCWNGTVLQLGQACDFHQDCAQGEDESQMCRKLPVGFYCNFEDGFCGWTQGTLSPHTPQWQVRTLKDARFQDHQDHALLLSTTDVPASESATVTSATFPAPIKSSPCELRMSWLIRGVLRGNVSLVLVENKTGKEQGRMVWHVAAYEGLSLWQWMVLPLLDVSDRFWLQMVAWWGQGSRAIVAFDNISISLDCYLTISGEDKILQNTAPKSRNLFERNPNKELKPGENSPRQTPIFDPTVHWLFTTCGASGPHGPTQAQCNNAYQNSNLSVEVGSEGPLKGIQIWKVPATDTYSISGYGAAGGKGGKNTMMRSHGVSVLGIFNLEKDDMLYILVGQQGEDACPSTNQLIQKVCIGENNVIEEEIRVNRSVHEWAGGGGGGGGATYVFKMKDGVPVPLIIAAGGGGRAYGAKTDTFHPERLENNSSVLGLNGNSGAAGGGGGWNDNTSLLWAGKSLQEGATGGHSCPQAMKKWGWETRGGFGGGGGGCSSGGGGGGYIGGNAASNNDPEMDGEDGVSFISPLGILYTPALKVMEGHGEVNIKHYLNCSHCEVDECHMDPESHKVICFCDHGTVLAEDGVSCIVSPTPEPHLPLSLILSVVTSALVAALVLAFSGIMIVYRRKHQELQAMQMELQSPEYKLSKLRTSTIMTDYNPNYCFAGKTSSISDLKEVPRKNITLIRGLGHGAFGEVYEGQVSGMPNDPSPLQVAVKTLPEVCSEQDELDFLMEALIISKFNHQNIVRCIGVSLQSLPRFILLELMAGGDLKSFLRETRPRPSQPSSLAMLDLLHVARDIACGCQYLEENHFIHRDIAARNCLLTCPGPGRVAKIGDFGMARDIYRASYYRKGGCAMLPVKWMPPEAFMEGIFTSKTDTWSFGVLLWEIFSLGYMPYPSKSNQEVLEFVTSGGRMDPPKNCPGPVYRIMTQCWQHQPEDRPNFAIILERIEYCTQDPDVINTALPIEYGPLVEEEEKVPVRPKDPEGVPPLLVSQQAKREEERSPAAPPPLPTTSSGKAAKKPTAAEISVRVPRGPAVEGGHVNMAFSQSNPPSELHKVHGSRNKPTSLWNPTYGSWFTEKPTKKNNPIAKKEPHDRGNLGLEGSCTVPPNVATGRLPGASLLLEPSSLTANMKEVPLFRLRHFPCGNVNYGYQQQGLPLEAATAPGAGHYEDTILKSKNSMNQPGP
Sequence of TYK2 (P29597 whole entry): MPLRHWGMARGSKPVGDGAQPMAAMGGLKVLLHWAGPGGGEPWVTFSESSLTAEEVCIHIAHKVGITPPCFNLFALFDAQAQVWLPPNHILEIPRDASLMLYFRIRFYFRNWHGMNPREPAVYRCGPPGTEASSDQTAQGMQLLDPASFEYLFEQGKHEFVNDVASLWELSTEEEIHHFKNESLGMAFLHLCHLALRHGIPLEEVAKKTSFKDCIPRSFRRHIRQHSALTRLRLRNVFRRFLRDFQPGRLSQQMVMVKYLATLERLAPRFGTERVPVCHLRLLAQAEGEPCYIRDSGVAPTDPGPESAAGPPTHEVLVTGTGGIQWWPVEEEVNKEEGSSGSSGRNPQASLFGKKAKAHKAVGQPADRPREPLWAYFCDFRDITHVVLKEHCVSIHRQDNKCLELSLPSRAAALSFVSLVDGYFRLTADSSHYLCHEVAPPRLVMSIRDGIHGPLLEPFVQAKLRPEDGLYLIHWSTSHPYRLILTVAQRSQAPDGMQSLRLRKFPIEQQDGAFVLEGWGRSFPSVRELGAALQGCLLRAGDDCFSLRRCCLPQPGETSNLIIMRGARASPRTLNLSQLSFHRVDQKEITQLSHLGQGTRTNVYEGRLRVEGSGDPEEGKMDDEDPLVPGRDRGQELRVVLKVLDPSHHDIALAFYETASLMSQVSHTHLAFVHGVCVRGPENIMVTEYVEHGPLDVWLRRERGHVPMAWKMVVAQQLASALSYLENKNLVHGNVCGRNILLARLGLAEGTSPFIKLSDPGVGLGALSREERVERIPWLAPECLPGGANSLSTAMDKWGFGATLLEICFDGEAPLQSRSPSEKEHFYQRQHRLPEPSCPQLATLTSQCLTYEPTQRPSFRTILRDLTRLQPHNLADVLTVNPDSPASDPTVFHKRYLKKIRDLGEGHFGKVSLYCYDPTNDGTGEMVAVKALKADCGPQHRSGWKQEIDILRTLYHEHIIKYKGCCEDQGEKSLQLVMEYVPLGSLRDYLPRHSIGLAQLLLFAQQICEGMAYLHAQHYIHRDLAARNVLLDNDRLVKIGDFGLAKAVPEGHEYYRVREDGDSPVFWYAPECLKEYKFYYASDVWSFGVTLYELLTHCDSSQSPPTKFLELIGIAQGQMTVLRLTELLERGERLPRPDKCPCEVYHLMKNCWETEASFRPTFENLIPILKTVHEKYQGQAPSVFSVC

For the compound `COCC(=O)Nc1ccc2cc1CCc1cccc(c1)Nc1ncc(Cl)c(n1)N2` [Example B28, N-[6-Chloro-2,4,8,22-tetraazatetracyclo[14.3.1.1(3,7).1(9,13)]docosa-1(20), 3(22),4,6,9(21),10,12,16,18-nonaen-12-yl]-2-methoxyacetamide trifluoroacetate], the IC50 was 8.2 nM in test [1] (Table B1); 4.1 nM in test [2] (Table B1); 10 nM in test [3] (Table B1); 20 nM at TYK2 (Table B1); 1800 nM in test [4] (setting [5]).
Turning to `Clc1cnc2nc1Nc1cccc(c1)OCCc1cc(cc(-c3cccnc3)c1)N2` [Example D26, 6-Chloro-19-pyridin-3-yl-14-oxa-2,4,8,23-tetraazatetracyclo[15.3.1.1(3,7).1(9,13)]tricosa-1(21),3(23),4,6,9(22),10,12,17,19-nonaene bis(trifluoroacetate)], the IC50 worked out at 1.2 nM in test [1] (Table D1); 0.6 nM in test [2] (Table D1); 8.5 nM in test [3] (Table D1); 2.7 nM on TYK2 (Table D1); 138 nM in test [4] (Table D1, 90 μM ATP).
As for `CCNC(=O)Nc1ccc2cc1CCc1cccc(c1)Nc1ncc(Cl)c(n1)N2` [Example B115, N-[6-Chloro-2,4,8,22-tetraazatetracyclo[14.3.1.1(3,7).1(9,13)]docosa-1(20), 3(22),4,6,9(21),10,12,16,18-nonaen-12-yl]-N′-ethylurea trifluoroacetate], the IC50 in test [1] (Table B1) came out at 1.4 nM; in test [2] (Table B1) it was 5.2 nM; in test [3] (Table B1), 29 nM; on TYK2 (Table B1), 8.8 nM. Moreover, the “ALK % of inhibition at a concentration of 500 nM or 1 mM” value (“ALK % of inhibition” for short) in test [4] (setting [6]) was 23%.
Consider `N#Cc1ccc(C(=O)N2CCC(C(=O)Nc3ccc4cc3CCc3cccc(c3)Nc3ncc(Cl)c(n3)N4)CC2)cc1` [Example A33, N-[6-Chloro-2,4,8,22-tetraazatetracyclo[14.3.1.1(3,7).1(9,13)]docosa-1(20), 3(22),4,6,9(21),10,12,16,18-nonaen-12-yl]-1-(4-cyanobenzoyl)piperidine-4-carboxamide trifluoroacetate], for which the half-maximal inhibitory concentration (IC50) was found to be 30 nM in test [1] (setting [7]), 38 nM in test [2] (setting [8]), 102 nM in test [3] (setting [9]) and 75 nM against TYK2. Also, the “ALK % of inhibition” value in test [4] (setting [10]) is listed as 26%.
Take `O=C(Nc1ccc2cc1CCc1cncc(c1)Nc1ncc(Cl)c(n1)N2)N1CCN(c2cccc(Cl)c2)CC1` [Example B306, N-[6-Chloro-2,4,8,18,22-pentaazatetracyclo[14.3.1.1(3,7).1(9,13)]docosa-1(20),3(22),4,6,9(21),10,12,16,18-nonaen-12-yl]-4-(3-chlorophenyl)piperazine-1-carboxamide tris(trifluoroacetate)]: the IC50 in test [1] (Table B1) was 27 nM; in test [2] (Table B1), 265 nM; in test [3] (Table B1), > 400 nM; at TYK2 (Table B1) it was 43 nM. In test [4] (setting [11]), the “ALK % of inhibition” value is on record as 72%.
For `O=C(Nc1cccc(Cl)c1)c1cc2cc(c1)Nc1nc(ncc1Cl)Nc1cccc(c1)CC2` [Example B13, 6-Chloro-N-(3-chlorophenyl)-2,4,8,22-tetraazatetracyclo[14.3.1.1(3,7).1(9,13)]docosa-1(20),3(22),4,6,9(21),10,12,16,18-nonaene-11-carboxamide trifluoroacetate], the IC50 in test [1] (Table B1) is 900 nM; in test [2] (Table B1) it was 171 nM; in test [3] (Table B1), 682 nM; at TYK2 (Table B1), > 1000 nM; in test [4] (setting [5]), > 1000 nM.
Regarding `CN(Cc1ccc2cc1CCc1cncc(c1)Nc1ncc(Cl)c(n1)N2)CC1CCN(C(=O)Nc2cccnc2)CC1` [Example B348, 4-{[{[6-Chloro-2,4,8,18,22-pentaazatetracyclo[14.3.1.1(3,7).1(9,13)]docosa-1(20),3(22),4,6,9(21),10,12,16,18-nonaen-12-yl]methyl}(methyl)amino]methyl}-N-pyridin-3-ylpiperidine-1-carboxamide tetrakis(trifluoroacetate)], the half-inhibitory concentration (IC50) in test [1] (Table B1) was 3.4 nM; in test [2] (Table B1), 45 nM; in test [3] (Table B1), > 400 nM; against TYK2 (Table B1), > 400 nM. In addition, the “ALK % of inhibition” value in test [4] (setting [11]) is listed as 47%.
As to `Cc1cccc(NC(=O)N2CCC(CC(=O)Nc3ccc4cc3CCc3cncc(c3)Nc3ncc(Cl)c(n3)N4)CC2)c1` [Example A150, 4-(2-{[6-Chloro-2,4,8,18,22-pentaazatetracyclo[14.3.1.1(3,7).1(9,13)]docosa-1(20),3(22),4,6,9(21),10,12,16,18-nonaen-12-yl]amino}-2-oxoethyl)-N-(3-methylphenyl)piperidine-1-carboxamide bis(trifluoroacetate)], the IC50 in test [1] (setting [7]) was 0.3 nM; in test [2] (setting [8]), 1.1 nM; in test [3] (setting [9]), > 100 nM; on TYK2, 5.1 nM. Also, in test [4] (setting [10]), the “ALK % of inhibition” value turned out to be 48%.
In the case of `Cc1ncoc1C(=O)Nc1ccc2cc1CCc1cccc(c1)Nc1ncc(Cl)c(n1)N2` [Example B78, N-[6-Chloro-2,4,8,22-tetraazatetracyclo[14.3.1.1(3,7).1(9,13)]docosa-1(20),3(22),4,6,9(21),10,12,16,18-nonaen-12-yl]-4-methyl-1,3-oxazole-5-carboxamide trifluoroacetate], the IC50 in test [1] (Table B1) was 11 nM; in test [2] (Table B1), 12 nM; in test [3] (Table B1), 57 nM; against TYK2 (Table B1) it was 29 nM. The “ALK % of inhibition” value in test [4] (setting [6]) is given as 44%.
Take `O=C(CC1CCN(S(=O)(=O)c2ccco2)CC1)Nc1ccc2cc1CCc1cccc(c1)Nc1ncc(Cl)c(n1)N2` [Example A211, N-[6-Chloro-2,4,8,22-tetraazatetracyclo[14.3.1.1(3,7).1(9,13)]docosa-1(20),3(22),4,6,9(21),10,12,16,18-nonaen-12-yl]-2-[1-(2-furylsulfonyl)piperidin-4-yl]acetamide trifluoroacetate]: the IC50 in test [1] (setting [7]) is 12 nM; in test [2] (setting [8]) it was 66 nM; in test [3] (setting [9]), > 200 nM; on TYK2 it was 150 nM. Also, the “ALK % of inhibition” value in test [4] (setting [10]) is given as 37%.
For `Cc1cnc2nc1Nc1cccc(c1)CCc1cccc(c1)N2` [Example B2, 6-Methyl-2,4,8,22-tetraazatetracyclo[14.3.1.1(3,7).1(9,13)]docosa-1(20),3(22),4,6,9(21),10,12,16,18-nonaene trifluoroacetate], the half-inhibitory concentration (IC50) in test [1] (Table B1) was 11 nM; in test [2] (Table B1), 8.4 nM; in test [3] (Table B1) it was 277 nM; at TYK2 (Table B1), 19 nM; in test [4] (setting [5]) it was > 1000 nM.
On the same counts, the results for `O=C(Nc1ccccc1Cl)Nc1ccc2cc1CCc1cccc(c1)Nc1ncc(Cl)c(n1)N2` [Example B84, N-(2-Chlorophenyl)-N′-[6-chloro-2,4,8,22-tetraazatetracyclo[14.3.1.1(3,7).1(9,13)]docosa-1(20),3(22),4,6,9(21),10,12,16,18-nonaen-12-yl]urea trifluoroacetate] are 0.39 nM, 1.3 nM, 9.7 nM, 4.2 nM and 730 nM.
In the case of `O=C(Nc1cc2cc(c1)OCCSc1cccc(c1)Nc1nc(ncc1Cl)N2)c1ccccc1` [Example D57, N-[6-Chloro-17-oxa-14-thia-2,4,8,24-tetraazatetracyclo[16.3.1.1(3,7).1(9,13)]tetracosa-1(22),3(24),4,6,9(23),10,12,18,20-nonaen-20-yl]benzamide trifluoroacetate], the IC50 in test [1] (Table D1) amounted to 11 nM; in test [2] (Table D1) it was 2.3 nM; in test [3] (Table D1), 21 nM; on TYK2 (Table D1) it was 7.4 nM; in test [4] (Table D1, 90 μM ATP), 430 nM.

One may read the IC50 as the midpoint of a concentration-inhibition curve.
